US20240366639A1, “HETEROCYCLIC GLP-1 AGONISTS” (GASHERBRUM BIO, INC., priority 2021, published 2024)
Where two headings read alike, the source gives them in different places.

Target: T1, GLP-1 Receptor (GLP1R) (Homo sapiens, UniProt P43220)
T1 construct: host or cells: HEK293/GLP1R/CRE-LUC
Experiment: GLP-1R agonist cAMP stimulation assay (Method 3)
Type: cell-based
Conditions: HEK293/GLP1R/CRE-LUC cells (HDB), Method 3, 30 min incubation
Procedure, shortened: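 HEK293 CRE-Luc cells stably expressing GLP-1R (1000 cells/well) were exposed to ½-log serially diluted compound in DPBS with 0.5 mM IBMX and 0.1% BSA for 30 min at 37 °C. cAMP was quantified by HTRF (cAMP-d2/anti-cAMP cryptate), 1 h at room temperature, read at 665/615 nm.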

[1] = read-out: GLP1R cAMP Stimulation DR: EC50 (nM) [Species: Human, Assay Cell Line: HDB]
[2] = read-out: GLP1R cAMP Stimulation DR: pEC50 (M) [Species: Human, Assay Cell Line: HDB] (converted)

T1 sequence (P43220 24-463): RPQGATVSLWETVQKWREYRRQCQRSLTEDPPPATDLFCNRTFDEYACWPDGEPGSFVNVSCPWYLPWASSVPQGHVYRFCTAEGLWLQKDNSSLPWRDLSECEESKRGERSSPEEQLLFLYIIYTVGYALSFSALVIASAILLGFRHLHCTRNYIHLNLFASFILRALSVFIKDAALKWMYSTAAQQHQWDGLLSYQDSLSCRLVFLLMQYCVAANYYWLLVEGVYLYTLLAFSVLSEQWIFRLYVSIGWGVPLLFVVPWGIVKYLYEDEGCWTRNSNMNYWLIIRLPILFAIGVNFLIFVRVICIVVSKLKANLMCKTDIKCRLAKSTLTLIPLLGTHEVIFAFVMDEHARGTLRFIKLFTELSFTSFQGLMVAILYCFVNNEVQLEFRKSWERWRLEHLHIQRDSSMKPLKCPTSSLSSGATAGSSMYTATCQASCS

| SMILES | EC50 [1] | EC50 [2] |
| --- | --- | --- |
| CCP(=O)(CC)c1ccc(-n2ccn(-c3c4c(nn3-c3cc(C)c(F)c(C)c3)CCN(C(=O)c3cc5cc([C@@H]6CCOC(C)(C)C6)ccc5n3[C@@]3(c5noc(=O)[nH]5)C[C@@H]3C)[C@H]4C)c2=O)cc1NC [Compound 146a, 3-((1S,2S)-1-(2-((S)-3-(3-(4-(diethylphosphoryl)-3-(methylamino)phenyl)-2-oxo-2,3-dihydro-1H-imidazol-1-yl)-2-(4-fluoro-3,5-dimethylphenyl)-4-methyl-4,5,6,7-tetrahydro-2H-pyrazolo[4,3-c]pyridine-5-carbonyl)-5-((R)-2,2-dimethyltetrahydro-2H-pyran-4-yl)-1H-indol-1-yl)-2-methylcyclopropyl)-1,2,4-oxadiazol-5(4H)-one] | < 0.1 nM | ≤ 0.1 nM |
| Cc1cc(-n2nc3c(c2-n2ccn(Cc4cccc(P(C)(C)=O)c4)c2=O)[C@H](C)N(C(=O)c2cc4cc(C5CCOCC5)ccc4n2[C@@]2(c4noc(=O)[nH]4)C[C@@H]2C)CC3)cc(C)c1F [Compound 147a, 3-((1S,2S)-1-(2-((S)-3-(3-(3-(dimethylphosphoryl)benzyl)-2-oxo-2,3-dihydro-1H-imidazol-1-yl)-2-(4-fluoro-3,5-dimethylphenyl)-4-methyl-4,5,6,7-tetrahydro-2H-pyrazolo[4,3-c]pyridine-5-carbonyl)-5-(tetrahydro-2H-pyran-4-yl)-1H-indol-1-yl)-2-methylcyclopropyl)-1,2,4-oxadiazol-5(4H)-one] | 0.5 to 5 nM | 1 to 10 nM |
| CNc1cc(-n2ccn(-c3c4c(nn3-c3cc(C)c(F)c(C)c3)CCN(C(=O)c3cc5cc(C6CCOCC6)ccc5n3C3(c5noc(=O)[nH]5)CC3)[C@H]4C)c2=O)ccc1P(=O)(C1CC1)C1CC1 [Compound 148a, (S)-3-(1-(2-(3-(3-(4-(dicyclopropylphosphoryl)-3-(methylamino)phenyl)-2-oxo-2,3-dihydro-1H-imidazol-1-yl)-2-(4-fluoro-3,5-dimethylphenyl)-4-methyl-4,5,6,7-tetrahydro-2H-pyrazolo[4,3-c]pyridine-5-carbonyl)-5-(tetrahydro-2H-pyran-4-yl)-1H-indol-1-yl)cyclopropyl)-1,2,4-oxadiazol-5(4H)-one] | < 0.1 nM | ≤ 0.1 nM |
| CCP(=O)(CC)c1ccc(-n2ccn(-c3c4c(nn3-c3cc(C)c(F)c(C)c3)CCN(C(=O)c3cc5cc(N6CCOC(C)(C)C6)ccc5n3[C@@]3(c5noc(=O)[nH]5)C[C@@H]3C)[C@H]4C)c2=O)cc1NC [Compound 150a, 3-((1S,2S)-1-(2-((S)-3-(3-(4-(diethylphosphoryl)-3-(methylamino)phenyl)-2-oxo-2,3-dihydro-1H-imidazol-1-yl)-2-(4-fluoro-3,5-dimethylphenyl)-4-methyl-4,5,6,7-tetrahydro-2H-pyrazolo[4,3-c]pyridine-5-carbonyl)-5-(2,2-dimethylmorpholino)-1H-indol-1-yl)-2-methylcyclopropyl)-1,2,4-oxadiazol-5(4H)-one] | 0.1 to 0.2 nM | 0.1 to 1 nM |

Continued, values first:

| EC50 [1] | EC50 [2] | SMILES |
| --- | --- | --- |
| 0.1 to 0.2 nM | 0.1 to 1 nM | CCP(=O)(CC)c1c(F)cc(-n2ccn(-c3c4c(nn3-c3cc(C)c(F)c(C)c3)CCN(C(=O)c3cc5cc(C6CCOCC6)ccc5n3[C@@]3(c5noc(=O)[nH]5)C[C@@H]3C)[C@H]4C)c2=O)cc1NC [Compound 143a, 3-((1S,2S)-1-(2-((S)-3-(3-(4-(diethylphosphoryl)-3-fluoro-5-(methylamino)phenyl)-2-oxo-2,3-dihydro-1H-imidazol-1-yl)-2-(4-fluoro-3,5-dimethylphenyl)-4-methyl-4,5,6,7-tetrahydro-2H-pyrazolo[4,3-c]pyridine-5-carbonyl)-5-(tetrahydro-2H-pyran-4-yl)-1H-indol-1-yl)-2-methylcyclopropyl)-1,2,4-oxadiazol-5(4H)-one] |
| < 0.1 nM | ≤ 0.1 nM | CCP(=O)(CC)c1cc(F)c(-n2ccn(-c3c4c(nn3-c3cc(C)c(F)c(C)c3)CCN(C(=O)c3cc5cc(C6CCOCC6)ccc5n3[C@@]3(c5noc(=O)[nH]5)C[C@@H]3C)[C@H]4C)c2=O)cc1NC [Compound 144a, 3-((1S,2S)-1-(2-((S)-3-(3-(4-(diethylphosphoryl)-2-fluoro-5-(methylamino)phenyl)-2-oxo-2,3-dihydro-1H-imidazol-1-yl)-2-(4-fluoro-3,5-dimethylphenyl)-4-methyl-4,5,6,7-tetrahydro-2H-pyrazolo[4,3-c]pyridine-5-carbonyl)-5-(tetrahydro-2H-pyran-4-yl)-1H-indol-1-yl)-2-methylcyclopropyl)-1,2,4-oxadiazol-5(4H)-one] |
| < 0.1 nM | ≤ 0.1 nM | CCP(=O)(CC)c1ccc(-n2ccn(-c3c4c(nn3-c3cc(C)c(F)c(C)c3)CCN(C(=O)c3cc5cc(C6CCOCC6)ccc5n3[C@@]3(c5noc(=O)[nH]5)C[C@@H]3C)[C@H]4C)c2=O)c(F)c1NC [Compound 145a, 3-((1S,2S)-1-(2-((S)-3-(3-(4-(diethylphosphoryl)-2-fluoro-3-(methylamino)phenyl)-2-oxo-2,3-dihydro-1H-imidazol-1-yl)-2-(4-fluoro-3,5-dimethylphenyl)-4-methyl-4,5,6,7-tetrahydro-2H-pyrazolo[4,3-c]pyridine-5-carbonyl)-5-(tetrahydro-2H-pyran-4-yl)-1H-indol-1-yl)-2-methylcyclopropyl)-1,2,4-oxadiazol-5(4H)-one] |
| < 0.1 nM | ≤ 0.1 nM | CCP(=O)(CC)c1ccc(-n2ccn(-c3c4c(nn3-c3cc(C)c(F)c(C)c3)CCN(C(=O)c3cc5cc([C@H]6CCOC(C)(C)C6)ccc5n3[C@@]3(c5noc(=O)[nH]5)C[C@@H]3C)[C@H]4C)c2=O)cc1NC [Compound 146b, 3-((1S,2S)-1-(2-((S)-3-(3-(4-(diethylphosphoryl)-3-(methylamino)phenyl)-2-oxo-2,3-dihydro-1H-imidazol-1-yl)-2-(4-fluoro-3,5-dimethylphenyl)-4-methyl-4,5,6,7-tetrahydro-2H-pyrazolo[4,3-c]pyridine-5-carbonyl)-5-((S)-2,2-dimethyltetrahydro-2H-pyran-4-yl)-1H-indol-1-yl)-2-methylcyclopropyl)-1,2,4-oxadiazol-5(4H)-one] |
